# Tests used:
# Format in all cases: functional
# Streptococcus pneumoniae [1] = test: Antibacterial activity against erythromycin-resistant Streptococcus pneumoniae isolates assessed as percent resistant isolates by broth microdilution method
# Streptococcus pneumoniae [2] = test: Antibacterial activity against erythromycin-resistant Streptococcus pneumoniae isolates by broth microdilution method
# Streptococcus pneumoniae [3] = test: Antibacterial activity against erythromycin-resistant Streptococcus pneumoniae isolates assessed as percent susceptible isolates by broth microdilution method
# Streptococcus pneumoniae [4] = test: Antibacterial activity against erythromycin-resistant Streptococcus pneumoniae isolate-1 with gyrA Glu85Lys, ParC Ser79Phe and parE Ile460Val mutation by broth microdilution method
# Streptococcus pneumoniae [5] = test: Antibacterial activity against erythromycin-resistant Streptococcus pneumoniae isolate-3 with ParC Ser79Tyr and parE Ile460Val mutation by broth microdilution method
# Streptococcus pneumoniae [6] = test: Antibacterial activity against erythromycin-resistant Streptococcus pneumoniae isolate-8 with parE Ile460Val mutation by broth microdilution method
# Streptococcus pneumoniae [7] = test: Antibacterial activity against erythromycin-resistant Streptococcus pneumoniae isolate-4 with gyrA Ser81Phe, ParC Lys137Asn and parE Ile460Val, Asp435Asn mutation by broth microdilution method
# Streptococcus pneumoniae [8] = test: Antibacterial activity against erythromycin-resistant Streptococcus pneumoniae isolate-2 with gyrA Ser81Phe, Ser114Gly, ParC Ser52Gly, Ser79Phe, Asn91Asp and parE Ile460Val mutation by broth microdilution method
# Streptococcus pneumoniae [9] = test: Antibacterial activity against erythromycin-resistant Streptococcus pneumoniae isolate-6 with parE Ile460Val mutation by broth microdilution method
# Streptococcus pneumoniae [10] = test: Antibacterial activity against erythromycin-resistant Streptococcus pneumoniae isolate-9 with parC Asn94ser and parE Ile460Val mutation by broth microdilution method
# Streptococcus pneumoniae [11] = test: Antibacterial activity against erythromycin-resistant Streptococcus pneumoniae isolate-5 with ParC Ser79Tyr, Lys137Asn and parE Ile460Val mutation by broth microdilution method
# Streptococcus pneumoniae [12] = test: Antibacterial activity against erythromycin-resistant Streptococcus pneumoniae isolate-7 with parE Ile460Val mutation by broth microdilution method
Compound,Activity (Streptococcus pneumoniae [1]) [%],MIC50 (Streptococcus pneumoniae [2]) [µg/mL],MIC90 (Streptococcus pneumoniae [2]) [µg/mL],Percent susceptible isolates (Streptococcus pneumoniae [3]) [%],MIC (Streptococcus pneumoniae [4]) [µg/mL],MIC (Streptococcus pneumoniae [5]) [µg/mL],MIC (Streptococcus pneumoniae [6]) [µg/mL],MIC (Streptococcus pneumoniae [7]) [µg/mL],MIC (Streptococcus pneumoniae [8]) [µg/mL],MIC (Streptococcus pneumoniae [9]) [µg/mL],MIC (Streptococcus pneumoniae [10]) [µg/mL],MIC (Streptococcus pneumoniae [11]) [µg/mL],MIC (Streptococcus pneumoniae [12]) [µg/mL]
CO/N=C(\C(=O)N[C@@H]1C(=O)N2C(C(=O)O)=C(COC(C)=O)CS[C@H]12)c1csc(N)n1 [CEFOTAXIME],3.4,1,2,78.7,,,,,,,,,
CO/N=C(\C(=O)N[C@@H]1C(=O)N2C(C(=O)O)=C(CSc3nc(=O)c(O)nn3C)CS[C@H]12)c1csc(N)n1 [CEFTRIAXONE],3.4,1,2,76.2,,,,,,,,,
CC[C@H]1OC(=O)[C@H](C)[C@@H](O[C@H]2C[C@@](C)(OC)[C@@H](O)[C@H](C)O2)[C@H](C)[C@@H](O[C@@H]2O[C@H](C)C[C@H](N(C)C)[C@H]2O)[C@](C)(O)C[C@@H](C)C(=O)[C@H](C)[C@@H](O)[C@]1(C)O [ERYTHROMYCIN],80,4,≥ 128,20,,,,,,,,,
CC(=O)NC[C@H]1CN(c2ccc(N3CCOCC3)c(F)c2)C(=O)O1 [LINEZOLID],0,0.5,1,100,,,,,,,,,
CC1(C)S[C@@H]2[C@H](NC(=O)[C@H](N)c3ccc(O)cc3)C(=O)N2[C@H]1C(=O)O [AMOXICILLIN],33.2,4,16,40.9,,,,,,,,,
CN(C)[C@@H]1C(O)=C(C(N)=O)C(=O)[C@@]2(O)C(O)=C3C(=O)c4c(O)cccc4[C@@](C)(O)[C@H]3C[C@@H]12 [TETRACYCLINE],81.3,32,64,18.3,,,,,,,,,
CC[C@H]1OC(=O)[C@H](C)[C@@H](O[C@H]2C[C@@](C)(OC)[C@@H](O)[C@H](C)O2)[C@H](C)[C@@H](O[C@@H]2O[C@H](C)C[C@H](N(C)C)[C@H]2O)[C@](C)(OC)C[C@@H](C)C(=O)[C@H](C)[C@@H](O)[C@]1(C)O [CLARITHROMYCIN],72.8,64,≥ 128,23.4,,,,,,,,,
COc1c(N2C[C@@H]3CCCN[C@@H]3C2)c(F)cc2c(=O)c(C(=O)O)cn(C3CC3)c12 [MOXIFLOXACIN],1.7,,,97.9,,,,,,,,,
CN[C@H](CC(C)C)C(=O)N[C@H]1C(=O)N[C@@H](CC(N)=O)C(=O)N[C@H]2C(=O)N[C@H]3C(=O)N[C@H](C(=O)N[C@H](C(=O)O)c4cc(O)cc(O)c4-c4cc3ccc4O)[C@H](O)c3ccc(c(Cl)c3)Oc3cc2cc(c3O[C@@H]2O[C@H](CO)[C@@H](O)[C@H](O)[C@H]2O[C@H]2C[C@](C)(N)[C@H](O)[C@H](C)O2)Oc2ccc(cc2Cl)[C@H]1O [VANCOMYCIN],0,0.25,0.25,100,,,,,,,,,
C[C@H]1COc2c(N3CCN(C)CC3)c(F)cc3c(=O)c(C(=O)O)cn1c23.C[C@H]1COc2c(N3CCN(C)CC3)c(F)cc3c(=O)c(C(=O)O)cn1c23.O [LEVOFLOXACIN],3,1,2,96.2,0.032,0.064,0.064,0.008,0.008,0.008,0.004,0.004,0.064

# Source: ChEMBL document CHEMBL1157371, “Prevalence, characteristics, and molecular epidemiology of macrolide and fluoroquinolone resistance in clinical isolates of Streptococcus pneumoniae at five tertiary-care hospitals in Korea” (2007)
